# Measured values as given in ChEMBL document CHEMBL3870328, “Synthesis of novel Ral inhibitors: An in vitro and in vivo study” (Bioorg Med Chem Lett, 2016).
# Active and inactive are the calls of the source. The rule behind the calls is not given here.
# Key:
# [1] = (§1) Cytotoxicity against human NCI-H2122 cells under anchorage-independent condition assessed as cell growth inhibition after 10 days by nitro blue tetrazolium-based microscopic analysis; type: functional; settings: NCI-H2122, 240 h
# [2] = Drug uptake in kidney of mouse xenografted with human NCI-H2122 cells at 50 mg/kg, ip after 3 hrs by LC-MS/MS analysis; type: ADME, organism-based; settings: read-out: Drug uptake
# [3] = Drug uptake in heart of mouse xenografted with human NCI-H2122 cells at 50 mg/kg, ip after 3 hrs by LC-MS/MS analysis; type: ADME, organism-based; settings: read-out: Drug uptake
# [4] = Half life in ip dosed mouse plasma; type: ADME, organism-based
# [5] = Drug uptake in brain of mouse xenografted with human NCI-H2122 cells at 50 mg/kg, ip after 3 hrs by LC-MS/MS analysis; type: ADME, organism-based; settings: read-out: Drug uptake
# [6] = Plasma concentration in mouse xenografted with human NCI-H2122 cells at 50 mg/kg, ip after 3 hrs by LC-MS/MS analysis; type: ADME, organism-based
# [7] = Drug uptake in liver of mouse xenografted with human NCI-H2122 cells at 50 mg/kg, ip after 3 hrs by LC-MS/MS analysis; type: ADME, organism-based; settings: read-out: Drug uptake
# [8] = Drug uptake in tumor of mouse xenografted with human NCI-H2122 cells at 50 mg/kg, ip after 3 hrs by LC-MS/MS analysis; type: ADME, organism-based, Neoplasm; settings: read-out: Drug uptake
# [9] = target: T1, Ras-related protein Ral-B (Homo sapiens) (UniProt P11234); test: Inhibition of RalB activity in human H2122 spheroids after 4 hrs by RalBP1 pull down assay
# T1 sequence (whole entry): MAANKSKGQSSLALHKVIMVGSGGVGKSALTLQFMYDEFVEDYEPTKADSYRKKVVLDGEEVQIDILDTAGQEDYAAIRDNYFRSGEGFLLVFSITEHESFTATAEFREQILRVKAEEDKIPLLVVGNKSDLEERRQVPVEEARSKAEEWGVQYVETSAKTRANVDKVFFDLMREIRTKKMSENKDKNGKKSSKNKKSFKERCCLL
# [10] = Drug uptake in lungs of mouse xenografted with human NCI-H2122 cells at 50 mg/kg, ip after 3 hrs by LC-MS/MS analysis; type: ADME, organism-based; settings: lung, read-out: Drug uptake
# [11] = target: T2, Ras-related protein Ral-A (Homo sapiens) (UniProt P11233); test: Inhibition of RalA activity in human H2122 spheroids after 4 hrs by RalBP1 pull down assay
# T2 sequence (whole entry): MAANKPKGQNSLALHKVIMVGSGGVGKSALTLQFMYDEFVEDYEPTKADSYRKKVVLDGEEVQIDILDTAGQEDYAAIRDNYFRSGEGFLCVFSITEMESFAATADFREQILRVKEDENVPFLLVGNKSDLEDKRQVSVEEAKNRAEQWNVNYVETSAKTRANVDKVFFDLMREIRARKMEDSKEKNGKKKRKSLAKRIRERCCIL
# NCI-H2122 = test: as §1; type: functional
compound,measurement,setting,value
Cc1nn(C)c2c1C(c1cccc(Br)n1)C(C#N)=C(N)O2 (stereo not drawn),IC50,[1],2.4 µM
Cn1nc(-c2ccccc2)c2c1OC(N)=C(C#N)C2c1ccc(C#N)cc1 (stereo not drawn),IC50,[1],5.2 µM
Cn1nc(-c2ccccc2)c2c1OC(N)=C(C#N)C2c1ccncc1 (stereo not drawn),IC50,[1],5.2 µM
Cn1nc(-c2ccccc2)c2c1OC(N)=C(C#N)C2c1ccc2c(c1)OCCO2 (stereo not drawn),IC50,[1],8.4 µM
COc1ccc(C2C(C#N)=C(N)Oc3c2c(-c2ccccc2)nn3-c2ccccc2)cc1 (stereo not drawn),IC50,[1],3.1 µM
Cn1nc(-c2ccccc2)c2c1OC(N)=C(C#N)C2c1ccc(F)cc1 (stereo not drawn),IC50,[1],> 10 µM
Cc1nn(C)c2c1C(c1ccncc1)C(C#N)=C(N)O2 (stereo not drawn),IC50,[1],4.1 µM
COc1ccc(C2C(C#N)=C(N)Oc3c2c(C)nn3C)cc1F (stereo not drawn),IC50,[1],5.8 µM
COc1ccc(-c2nn(C)c3c2C(c2ccc(OC)cc2)C(C#N)=C(N)O3)cc1 (stereo not drawn),IC50,[1],> 10 µM
COc1ccc(-c2nn(C)c3c2C(c2ccccc2)C(C#N)=C(N)O3)cc1OC (stereo not drawn),IC50,[1],> 10 µM
Cc1nn(C)c2c1C(c1ccc(C(F)(F)F)cc1)C(C#N)=C(N)O2 (stereo not drawn),concentration at 3 h,[2],2400 ng/g
same,concentration at 3 h,[3],2080 ng/g
same,half-life,[4],< 90 min
same,concentration at 3 h,[5],1390 ng/g
same,concentration at 3 h,[6],5640 ng/mL
same,concentration at 3 h,[7],4070 ng/g
same,concentration at 3 h,[8],1220 ng/g
same,inhibition,[9],Dose-dependent effect
same,IC50,[1],2.2 µM
same,concentration at 3 h,[10],1870 ng/g
same,inhibition,[11],Dose-dependent effect
Cn1nc(-c2ccccc2)c2c1OC(N)=C(C#N)C2c1cccnc1 (stereo not drawn),IC50,[1],> 10 µM
Cn1nc(-c2ccccc2)c2c1OC(N)=C(C#N)C2c1ccc(-n2ccnc2)cc1 (stereo not drawn),concentration at 3 h,[2],630 ng/g
same,concentration at 3 h,[3],930 ng/g
same,half-life,[4],< 90 min
same,concentration at 3 h,[5],170 ng/g
same,concentration at 3 h,[6],490 ng/mL
same,concentration at 3 h,[7],980 ng/g
same,concentration at 3 h,[8],380 ng/g
same,inhibition,[9],Dose-dependent effect
same,growth inhibition (GI),NCI-H2122,Active
same,concentration at 3 h,[10],1090 ng/g
same,inhibition,[11],Dose-dependent effect
Cc1nn(C)c2c1C(c1ccc(C(C)C)cc1)C(C#N)=C(N)O2 (stereo not drawn),IC50,[1],4 µM
COc1cc(OC)c(C2C(C#N)=C(N)Oc3c2c(C)nn3C)c(OC)c1 (stereo not drawn),IC50,[1],1.6 µM
Cn1nc(-c2ccccc2)c2c1OC(N)=C(C#N)C2c1ccc(OC(F)(F)F)cc1 (stereo not drawn),IC50,[1],5.5 µM
Cc1nn(C)c2c1C(c1ccc3c(c1)OCCO3)C(C#N)=C(N)O2 (stereo not drawn),IC50,[1],8.6 µM
Cn1nc(-c2ccccc2)c2c1OC(N)=C(C#N)C2c1cccc(Br)n1 (stereo not drawn),IC50,[1],1.7 µM
COc1ccc(C2C(C#N)=C(N)Oc3c2c(-c2ccccc2)nn3C)cc1F (stereo not drawn),IC50,[1],> 10 µM
Cc1nn(C)c2c1C(c1ccc(-n3ccnc3)cc1)C(C#N)=C(N)O2 (stereo not drawn),IC50,[1],1.7 µM
Cn1nc(-c2ccccc2)c2c1OC(N)=C(C#N)C2c1ccc(C(F)(F)F)cc1 (stereo not drawn),IC50,[1],4.1 µM
Cn1nc(-c2ccccc2)c2c1OC(N)=C(C#N)C2c1ccccc1 (stereo not drawn),IC50,[1],> 10 µM
Cc1nn(C)c2c1C(c1ccc(OC(F)(F)F)cc1)C(C#N)=C(N)O2 (stereo not drawn),IC50,[1],2.9 µM
